Data published in patent US8003648B2, “Heterocyclic GPR40 modulators” (Amgen Inc., priority 2006, dated 2011).

Biological target: T1, human GPR40 (Homo sapiens, UniProt O14842)
T1 construct: host or cells: CHO cells
Assay: Cell-based aequorin assay using human GPR40
Conditions: activation of human GPR40; CHO cells stably transfected with GPR40 and Aequorin; 0.01% HSA; aequorin luminescence
Experimental: Cell-based aequorin assays were employed to characterize the modulatory activity of compounds on the GPR40 signaling pathway. In an exemplary assay, CHO cells were stably transfected with both GPR40 and Aequorin (Euroscreen). Cells were detached from the tissue culture dish with 2 mL of trypsin (0.25% (w/v)). Trypsinization was halted with 28 mL of Hanks Buffered Salt Solution containing 20 mM Hepes (H/HBSS) and 0.01% fatty acid-free human serum albumin (HSA). Coelantrazine is added to 1 ug/mL, and the cells were incubated for 2 hours at room temperature. Compounds were dissolved in DMSO for preparation of 10 mM stock solutions. Compounds were diluted in H/HBSS containing 0.01% HSA. Serial dilutions of the test compounds were prepared to determine dose response.
Aequorin luminescence measurements were made using an EG&G Berthold 96-well luminometer, and the response was measured over a 20 second interval after cells and compounds were mixed. The maximum relative light units was plotted to determine dose response. The EC50 (effective concentration to reach 50% maximal response) was determined from the dose response plot.
Table 1 presents representative data (EC50 values) obtained for exemplary compounds of the invention for the activation of human GPR40. […]

T1 sequence (O14842 whole entry): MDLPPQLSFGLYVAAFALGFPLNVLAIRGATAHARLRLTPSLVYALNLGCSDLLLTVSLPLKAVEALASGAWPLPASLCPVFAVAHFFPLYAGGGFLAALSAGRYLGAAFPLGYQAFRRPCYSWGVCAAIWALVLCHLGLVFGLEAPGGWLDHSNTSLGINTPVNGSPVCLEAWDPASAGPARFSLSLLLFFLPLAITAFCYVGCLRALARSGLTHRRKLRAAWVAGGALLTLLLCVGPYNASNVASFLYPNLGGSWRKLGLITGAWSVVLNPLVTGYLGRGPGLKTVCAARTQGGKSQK

| EC50 | Compound |
| --- | --- |
| 10 to 100 nM | Cc1c(Cl)cccc1-c1cccc(COc2ccc(C(CC(=O)O)c3ccon3)cc2)c1 (stereo not shown) [Example 1, 3-(4-(3-(3-Chloro-2-methylphenyl)benzyloxy)phenyl)-3-(isoxazol-3-yl)propanoic acid] |
| 10 to 100 nM | O=C(O)C[C@@H](c1ccc(OCc2cccc(-c3ccc(C(F)(F)F)cc3)c2)cc1)c1ccon1 [Example 2, (S)-3-(4-(3-(4-(Trifluoromethyl)phenyl)benzyloxy)phenyl)-3-(isoxazol-3-yl)propanoic acid] |
| 1000 to 10000 nM | O=C(O)C[C@H](c1ccc(OCc2cccc(-c3ccc(C(F)(F)F)cc3)c2)cc1)c1ccon1 [Example 3, (R)-3-(4-(3-(4-(Trifluoromethyl)phenyl)benzyloxy)phenyl)-3-(isoxazol-3-yl)propanoic acid] |
| 10 to 100 nM | CCOc1cc(Cl)ccc1-c1ccc(COc2ccc([C@H](CC(=O)O)c3ccon3)cc2)cc1 [Example 4, (S)-3-(4-(4-(4-Chloro-2-ethoxyphenyl)benzyloxy)phenyl)-3-(isoxazol-3-yl)propanoic acid] |
| 1000 to 10000 nM | CCOc1cc(Cl)ccc1-c1ccc(COc2ccc([C@@H](CC(=O)O)c3ccon3)cc2)cc1 [Example 5, (R)-3-(4-(4-(4-Chloro-2-ethoxyphenyl)benzyloxy)phenyl)-3-(isoxazol-3-yl)propanoic acid] |
| 100 to 1000 nM | Cc1nc(-c2ccc(C(F)(F)F)cc2)sc1COc1ccc([C@@H](CC(=O)O)c2ccon2)cc1 [Example 6, (R)-3-(Isoxazol-3-yl)-3-(4-((4-methyl-2-(4-(trifluoromethyl)phenyl)thiazol-5-yl)methoxy)phenyl)propanoic acid] |
| 10 to 100 nM | Cc1nc(-c2ccc(C(F)(F)F)cc2)sc1COc1ccc([C@H](CC(=O)O)c2ccon2)cc1 [Example 7, (S)-3-(Isoxazol-3-yl)-3-(4-((4-methyl-2-(4-(trifluoromethyl)phenyl)thiazol-5-yl)methoxy)phenyl)propanoic acid] |
| 100 to 1000 nM | Cc1nc(-c2ccc(C(F)(F)F)cc2)sc1COc1ccc(C(CC(=O)O)C2=NOCC2)cc1 (stereo not shown) [Example 8] |
| 10 to 100 nM | Cc1nc(-c2ccc(C(F)(F)F)cc2)sc1COc1ccc([C@H](CC(=O)O)C2=NOCC2)cc1 [Example 9, (S)-3-(Dihydroisoxazol-3-yl)-3-(4-((4-methyl-2-(4-(trifluoromethyl)phenyl)thiazol-5-yl)methoxy)phenyl)propanoic acid] |
| 100 to 1000 nM | Cc1ccc(-c2nc(C)c(COc3ccc([C@H](CC(=O)O)C4=NOCC4)cc3)s2)cc1 [Example 10, (S)-3-(Dihydroisoxazol-3-yl)-3-(4-((4-methyl-2-(4-methylphenyl)thiazol-5-yl)methoxy)phenyl)propanoic acid] |
| 1000 to 10000 nM | COc1ccc(-c2nc(COc3ccc([C@H](CC(=O)O)c4ccon4)cc3)no2)cc1 [Example 11, (S)-3-(Isoxazol-3-yl)-3-(4-((5-(4-methoxyphenyl)-1,2,4-oxadiazol-3-yl)methoxy)phenyl)propanoic acid] |
| 100 to 1000 nM | O=C(O)C[C@@H](c1ccc(OCc2nc(-c3ccc(OCc4ccc(Cl)cc4)cc3)no2)cc1)c1ccon1 [Example 12, (S)-3-(4-((3-(4-(4-Chlorobenzyloxy)phenyl)-1,2,4-oxadiazol-5-yl)methoxy)phenyl)-3-(isoxazol-3-yl)propanoic acid] |
| 10 to 100 nM | Cc1ccc(-c2ccc(COc3ccc([C@H](CC(=O)O)c4ccon4)cc3)s2)cc1 [Example 13, (S)-3-(Isoxazol-3-yl)-3-(4-((5-p-tolylthiophen-2-yl)methoxy)phenyl)propanoic acid] |
| 10 to 100 nM | CCCCc1ccc(-c2nc(C)c(COc3ccc([C@H](CC(=O)O)C4=NOCC4)cc3)s2)cc1 [Example 14, (S)-3-(4-((2-(4-Butylphenyl)-4-methylthiazol-5-yl)methoxy)phenyl)-3-(4,5-dihydroisoxazol-3-yl)propanoic acid] |
| 10 to 100 nM | Cc1ccc(-c2cc(COc3ccc([C@H](CC(=O)O)c4ccon4)cc3)c(C)o2)cc1 [Example 15, (S)-3-(Isoxazol-3-yl)-3-(4-((2-methyl-5-p-tolylfuran-3-yl)methoxy)phenyl)propanoic acid] |
| 100 to 1000 nM | Cn1nc(-c2ccc(C(F)(F)F)cc2)cc1COc1ccc([C@H](CC(=O)O)c2ccon2)cc1 [Example 16, (S)-3-(Isoxazol-3-yl)-3-(4-((1-methyl-3-(4-(trifluoromethyl)phenyl)-1H-pyrazol-5-yl)methoxy)phenyl)propanoic acid] |
| 100 to 1000 nM | Cc1ccc(COc2ccc([C@H](CC(=O)O)c3ccon3)cc2)cc1-c1ccc(CC(C)C)cc1 [Example 17, (S)-3-(4-(3-(4-Isobutyl)-phenyl-4-methylbenzyloxy)phenyl)-3-(isoxazol-3-yl)propanoic acid] |

| EC50 | Compound |
| --- | --- |
| 100 to 1000 nM | CCCCc1ccc(-c2cc(COc3ccc([C@H](CC(=O)O)c4ccon4)cc3)ccc2C)cc1 [Example 18, (S)-3-(4-(3-(4-Butyl)-phenyl-4-methylbenzyloxy)phenyl)-3-(isoxazol-3-yl)propanoic acid] |
| 1000 to 10000 nM | CS(=O)(=O)c1cc(COc2ccc([C@H](CC(=O)O)c3ccon3)cc2)ccc1OC(F)(F)F [Example 19, (S)-3-(4-(3-(Methylsulfonyl)-4-(trifluoromethoxy)benzyloxy)-phenyl)-3-(isoxazol-3-yl)propanoic acid] |
| 10 to 100 nM | O=C(O)C[C@@H](c1ccc(OCc2ccc(OC(F)(F)F)c(C3=CCCC3)c2)cc1)c1ccon1 [Example 20, (S)-3-(4-(3-Cyclopentenyl-4-(trifluoromethoxy)benzyloxy)-phenyl)-3-(isoxazol-3-yl)propanoic acid] |
| 10 to 100 nM | O=C(O)C[C@@H](c1ccc(OCc2ccc(Cl)c(C(F)(F)F)c2)cc1)c1ccon1 [Example 21, (S)-3-(4-(4-Chloro-3-(trifluoromethyl)benzyloxy)phenyl)-3-(isoxazol-3-yl)propanoic acid] |
| 10 to 100 nM | O=C(O)C[C@@H](c1ccc(OCc2ccc(OC(F)(F)F)c(OC(F)(F)F)c2)cc1)c1ccon1 [Example 22, (S)-3-(4-(3,4-Bis(trifluoromethoxy)benzyloxy)phenyl)-3-(isoxazol-3-yl)propanoic acid] |
| 10 to 100 nM | O=C(O)C[C@@H](c1ccc(OCc2ccc(OC(F)(F)F)c(C3CCCC3)c2)cc1)c1ccon1 [Example 23, (S)-3-(4-(3-Cyclopentyl-4-(trifluoromethoxy)benzyloxy)-phenyl)-3-(isoxazol-3-yl)propanoic acid] |
| 10 to 100 nM | C=C(C)c1cc(COc2ccc([C@H](CC(=O)O)c3ccon3)cc2)ccc1OC(F)(F)F [Example 24, (S)-3-(4-(3-(Prop-1-en-2-yl)-4-(trifluoromethoxy)benzyloxy)-phenyl)-3-(isoxazol-3-yl)propanoic acid] |
| 10 to 100 nM | O=C(O)C[C@@H](c1ccc(OCc2ccc(OC(F)(F)F)c(Br)c2)cc1)c1ccon1 [Example 25, (S)-3-(4-(3-bromo-4-(trifluoromethoxy)benzyloxy)phenyl)-3-(isoxazol-3-yl)propanoic acid] |
| 100 to 1000 nM | CC(C)c1cc(COc2ccc([C@H](CC(=O)O)c3ccon3)cc2)ccc1C(C)(C)C [Example 26, (S)-3-(4-(4-tert-Butyl-3-isopropylbenzyloxy)phenyl)-3-(isoxazol-3-yl)propanoic acid] |
| 100 to 1000 nM | O=C(O)C[C@@H](c1ccc(OCc2cccc(NC(=O)c3ccc(C(F)(F)F)cc3)c2)cc1)c1ccon1 [Example 27, (S)-3-(4-(3-(4-(Trifluoromethyl)benzamido)benzyloxy)phenyl)-3-(isoxazol-3-yl)propanoic acid] |
| 10 to 100 nM | O=C(O)C[C@@H](c1ccc(OCc2ccc(C3=CCCC3)c(OC(F)(F)F)c2)cc1)c1ccon1 [Example 28, (S)-3-(4-(4-Cyclopentenyl-3-(trifluoromethoxy)benzyloxy)-phenyl)-3-(isoxazol-3-yl)propanoic acid] |
| 1000 to 10000 nM | CC(C)(C)C(=O)Nc1cccc(COc2ccc([C@H](CC(=O)O)c3ccon3)cc2)c1 [Example 30, (S)-3-(4-(3-Pivalamidobenzyloxy)phenyl)-3-(isoxazol-3-yl)propanoic acid] |
| 10 to 100 nM | O=C(O)C[C@@H](c1ccc(OCc2cccc(Sc3ccc(C(F)(F)F)cc3)c2)cc1)c1ccon1 [Example 31, (S)-3-(4-(3-(4-(Trifluoromethyl)phenylthio)benzyloxy)phenyl)-3-(isoxazol-3-yl)propanoic acid] |
| 100 to 1000 nM | O=C(O)C[C@@H](c1ccc(OCc2cccc(NS(=O)(=O)c3ccc(C(F)(F)F)cc3)c2)cc1)c1ccon1 [Example 32, (S)-3-(4-(3-(4-Trifluoromethylphenylsulfonamido)benzyloxy)-phenyl)-3-(isoxazol-3-yl)propanoic acid] |
| 100 to 1000 nM | O=C(O)C[C@@H](c1ccc(OCc2cccc(S(=O)(=O)c3ccc(C(F)(F)F)cc3)c2)cc1)c1ccon1 [Example 33, (S)-3-(4-(3-(4-(Trifluoromethyl)phenylsulfonyl)benzyloxy)-phenyl)-3-(isoxazol-3-yl)propanoic acid] |
| 10 to 100 nM | C=C(C)c1ccc(COc2ccc([C@H](CC(=O)O)c3ccon3)cc2)cc1OC(F)(F)F [Example 35, (S)-3-(4-(4-(Prop-1-en-2-yl)-3-(trifluoromethoxy)benzyloxy)-phenyl)-3-(isoxazol-3-yl)propanoic acid] |

| Compound | EC50 |
| --- | --- |
| CC(C)(C)OC(=O)N1CC=C(c2cccc(COc3ccc([C@H](CC(=O)O)c4ccon4)cc3)c2)CC1 [Example 34, (S)-3-(4-(3-(1-(Tert-butoxycarbonyl)-1,2,3,6-tetrahydropyridin-4-yl)benzyloxy)phenyl)-3-(isoxazol-3-yl)propanoic acid] | 1000 to 10000 nM |
